Results reported in patent US20020028836A1, “Potassium channel openers” (priority 2000, published 2002).

Columns and labels:
[1] = tested on: primary cultured guinea-pig urinary bladder (GPB) cells; assay: Membrane hyperpolarization (MHP) assay, DiBAC(4)3 / FLIPR; type: cell-based; settings: Cavia porcellus; for EC50: concentration that elicits 50% of the maximal response for the test sample; for Emax: maximal steady-state hyperpolarization, normalized to response with 10 μM P1075 (100%)
How it was run: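 Primary smooth-muscle cells from male guinea-pig bladder, grown to confluence, loaded 30 min at 37° C with 5 μM DiBAC(4)3 in HEPES buffer pH 7.4. Fluorescence drop on FLIPR followed 25 min after compound; steady-state hyperpolarization normalized to 10 μM P1075 (100%), EC50 from four-parameter fit of five concentrations.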

| SMILES | EC50 [1] | Emax [1] | melting point |
| --- | --- | --- | --- |
| CC1=C(CC(NC(=O)c2ccc(Cl)cc2)NC(=N[N+](=O)[O-])Nc2cccnc2)C(C)(C)CCC1 (centres unmarked) [Example 129, 4-chloro-N-[1-{[(nitroimino)(3-pyridinylamino)methyl]amino}-2-(2,6,6-trimethyl-1-cyclohexen-1-yl)ethyl]benzamide] | 0.12 µM | 132% | 217 to 218 °C |
| O=C(Nc1cccnc1)NC(NC(=O)c1ccc(Cl)cc1)C(Cl)(Cl)Cl (centres unmarked) [Example 41, 4-chloro-N-(2,2,2-trichloro-1-{[(3-pyridinylamino)carbonyl]amino}ethyl)benzamide] | 0.14 µM | 98% | 166 to 168 °C |
| Cc1ccccc1C(=O)NC(NC(=O)Nc1cccnc1)C(Cl)(Cl)Cl (centres unmarked) [Example 39, 2-methyl-N-(2,2,2-trichloro-1-{[(3-pyridinylamino)carbonyl]amino}ethyl)benzamide] | 0.46 µM | 101% | 182 to 184 °C |
| CC(C)(C1CCCCC1)C(NC(=O)c1ccc(Cl)cc1)NC(=NC#N)Nc1cccnc1 (centres unmarked) [Example 93, 4-chloro-N-(1-{[(cyanoimino)(3-pyridinylamino)methyl]amino}-2-cyclohexyl-2-methylpropyl)benzamide] | 0.14 µM | 75% | 181 to 183 °C |
| CC(C)(C)CC(NC(=O)c1ccc(Cl)cc1)NC(=NC#N)Nc1cccnc1 (centres unmarked) [Example 62, 4-chloro-N-(1-{[(cyanoimino)(3-pyridinylamino)methyl]amino}-3,3-dimethylbutyl)benzamide] | 0.33 µM | 81% | 181 to 183 °C |
| Cc1ccc(C(=O)NC(NC(=S)Nc2ccc(Cl)nc2)C(F)(F)F)cc1 (centres unmarked) [Example 7, N-[1-({[(6-chloro-3-pyridinyl)amino]carbothioyl}amino)-2,2,2-trifluoroethyl]-4-methylbenzamide] | 0.45 µM | 101% | 199 to 200 °C |
| CC(C)CC(NC(=O)c1ccc(Cl)cc1)NC(=NC#N)Nc1cccnc1 (centres unmarked) [Example 60, 4-chloro-N-(1-{[(cyanoimino)(3-pyridinylamino)methyl]amino}-3-methylbutyl)benzamide] | 1 µM | 62% | 193 to 194 °C |
| COc1ccccc1NC(=S)NC(NC(=O)c1ccc(C)cc1)C(F)(F)F (centres unmarked) [Example 8, 4-methyl-N-(2,2,2-trifluoro-1-{[(2-methoxyanilino)carbothioyl]amino}ethyl)benzamide] | ≥ 10 µM | 10% | 212 to 214 °C |
| N#CN=C(Nc1cccnc1)NC(NC(=O)c1ccc(Cl)cc1)C(F)(F)F (centres unmarked) [Example 64, 4-chloro-N-(1-{[(cyanoimino)(3-pyridinylamino)methyl]amino}-2,2,2-trifluoroethyl)benzamide] | 0.4 µM | 89% | 136 to 138 °C |
| Cc1ccc(C(=O)NC(NC(=NC#N)Nc2cncnc2)C(Cl)(Cl)Cl)cc1 (centres unmarked) [Example 48, 4-methyl-N-(2,2,2-trichloro-1-{[(cyanoimino)(5-pyrimidinylamino)methyl]amino}ethyl)benzamide] | 0.2 µM | 96% | 186 to 188 °C |
| CCC(CC)C(NC(=O)c1ccc(Cl)cc1)NC(=NC#N)Nc1cccnc1 (centres unmarked) [Example 59, 4-chloro-N-(1-{[(cyanoimino)(3-pyridinylamino)methyl]amino}-2-ethylbutyl)benzamide] | 0.31 µM | 73% | 185 to 187 °C |
| CCC(NC(=O)c1ccc(Cl)cc1)NC(=NC#N)Nc1cccnc1 (centres unmarked) [Example 84, 4-chloro-N-(1-{[(cyanoimino)(3-pyridinylamino)methyl]amino}propyl)benzamide] | 6 µM | 69% | 181 to 183 °C |
| Cc1ccc(C(=O)NC(NC(=S)Nc2cccc(C(F)(F)F)c2F)C(F)(F)F)cc1 (centres unmarked) [Example 5, 4-methyl-N-[2,2,2-trifluoro-1-({[2-fluoro-3-(trifluoromethyl)anilino]carbothioyl}amino)ethyl]benzamide] | 1.08 µM | 106% | 179 to 181 °C |
| N#CN=C(Nc1cccnc1)NC(NC(=O)c1ccc(Cl)cc1)C1CCCCC1 (centres unmarked) [Example 61, 4-chloro-N-[{[(cyanoimino)(3-pyridinylamino)methyl]amino}(cyclohexyl)methyl]benzamide] | 0.33 µM | 36% | 190 to 192 °C |
| CC(C)(Cc1ccccc1)C(NC(=O)c1ccc(Cl)cc1)NC(=NC#N)Nc1cccnc1 (centres unmarked) [Example 102, 4-chloro-N-(1-{[(cyanoimino)(3-pyridinylamino)methyl]amino}-2,2-dimethyl-3-phenylpropyl)benzamide] | > 10 µM | < 20% | 182 to 183 °C |
| Cc1ccc(C(=O)NC(NC(=NC#N)Nc2cccc(F)c2)C(C)(C)C)cc1 (centres unmarked) [Example 53, N-(1-{[(cyanoimino)(3-fluoroanilino)methyl]amino}-2,2-dimethylpropyl)-4-methylbenzamide] | – | – | 193 to 194 °C |

| SMILES | EC50 [1] | Emax [1] | melting point |
| --- | --- | --- | --- |
| Cc1ccc(C(=O)NC(NC(=NC#N)Nc2ccc(Cl)nc2)C(C)(C)C)cc1 (centres unmarked) [Example 55, N-(1-{[[(6-chloro-3-pyridinyl)amino](cyanoimino)methyl]amino}-2,2-dimethylpropyl)-4-methylbenzamide] | – | – | 194 to 196 °C |
| CC(C)(C)C(NC(=O)c1ccc(Cl)cc1)NC(=NC#N)NCc1cccc(Cl)c1 (centres unmarked) [Example 78, 4-chloro-N-(1-{[[(3-chlorobenzyl)amino](cyanoimino)methyl]amino}-2,2-dimethylpropyl)benzamide] | – | – | 178 to 180 °C |
| CC(C)(C)C(NC(=O)c1ccc(Cl)cc1)NC(=NC#N)NCc1ccccn1 (centres unmarked) [Example 82, 4-chloro-N-[1-({(cyanoimino)[(2-pyridinylmethyl)amino]methyl}amino)-2,2-dimethylpropyl]benzamide] | – | – | 184 to 185 °C |
| CC(C)(C)C(NC(=O)c1ccc(Cl)cc1)NC(=NC#N)Nc1cc(F)cc(F)c1 (centres unmarked) [Example 72, 4-chloro-N-(1-{[(cyanoimino)(3,5-difluoroanilino)methyl]amino}-2,2-dimethylpropyl)benzamide] | – | – | 196 to 198 °C |
| CC(C)(C)CC(NC(=O)c1ccc(Cl)cc1)NC(=NS(=O)(=O)c1ccccc1)Nc1cccnc1 (centres unmarked) [Example 140, 4-chloro-N-(3,3-dimethyl-1-{[[(phenylsulfonyl)imino](3-pyridinylamino)methyl]amino}butyl)benzamide] | – | – | 199 to 200 °C |
| COc1ncccc1NC(=NC#N)NC(NC(=O)c1cc(F)cc(F)c1)C(C)(Cl)Cl (centres unmarked) [Example 157, N-[2,2-dichloro-1-({(cyanoimino)[(2-methoxy-3-pyridinyl)amino]methyl}amino)propyl]-3,5-difluorobenzamide] | – | – | 125 to 126 °C |
| COc1cc(OC)cc(C(=O)NC(NC(=NC#N)Nc2ccc(C(F)(F)F)nc2)C(C)(Cl)Cl)c1 (centres unmarked) [Example 183, N-{2,2-dichloro-1-[((cyanoimino){[6-(trifluoromethyl)-3-pyridinyl]amino}methyl)amino]propyl}-3,5-dimethoxybenzamide] | – | – | 187 to 189 °C |
| CC(C)(C)C(NC(=O)Nc1ccccc1F)NC(=O)c1ccc(Cl)cc1 (centres unmarked) [Example 147, 4-chloro-N-(1-{[(2-fluoroanilino)carbonyl]amino}-2,2-dimethylpropyl)benzamide] | – | – | 229 to 230 °C |
| CC(C)(C)C(NC(=O)c1ccc(Cl)cc1)NC(=NS(=O)(=O)c1ccccc1)Nc1cccnc1 (centres unmarked) [Example 139, 4-chloro-N-(2,2-dimethyl-1-{[[(phenylsulfonyl)imino](3-pyridinylamino)methyl]amino}propyl)benzamide] | – | – | 196 to 197 °C |
| CCCC(Cl)(Cl)C(NC(=O)c1ccc(Cl)cc1)NC(=N[N+](=O)[O-])Nc1cccnc1 (centres unmarked) [Example 136, 4-chloro-N-(2,2-dichloro-1-{[(nitroimino)(3-pyridinylamino)methyl]amino}pentyl)benzamide] | – | – | 198 to 200 °C |
| N#CN=C(Nc1cccnc1)NC(NC(=O)c1ccc(I)cc1)C(Cl)(Cl)Cl (centres unmarked) [Example 114, 4-iodo-N-(2,2,2-trichloro-1-{[(cyanoimino)(3-pyridinylamino)methyl]amino}ethyl)benzamide] | – | – | 208 to 210 °C |
| COc1ncccc1NC(=NC#N)NC(NC(=O)c1cc(Cl)cc(Cl)c1)C(C)(Cl)Cl (centres unmarked) [Example 164, 3,5-dichloro-N-[2,2-dichloro-1-({(cyanoimino)[(2-methoxy-3-pyridinyl)amino]methyl}amino)propyl]benzamide] | – | – | 149 to 150 °C |
| COc1cccc(NC(=NC#N)NC(NC(=O)c2ccc(Cl)cc2)C(C)(C)C)c1 (centres unmarked) [Example 76, 4-chloro-N-(1-{[(cyanoimino)(3-methoxyanilino)methyl]amino}-2,2-dimethylpropyl)benzamide] | – | – | 173 to 175 °C |
| CC(C)(C)C(NC(=O)c1ccc(Cl)cc1)NC(=NC#N)Nc1ccccc1F (centres unmarked) [Example 69, 4-chloro-N-(1-{[(cyanoimino)(2-fluoroanilino)methyl]amino}-2,2-dimethylpropyl)benzamide] | – | – | 208 to 209 °C |
| CC(Cl)(Cl)C(NC(=O)c1ccc(C(F)(F)F)cc1)NC(=NS(=O)(=O)C(F)(F)F)Nc1cccnc1 (centres unmarked) [Example 191, N-{2,2-dichloro-1-[((3-pyridinylamino){[(trifluoromethyl)sulfonyl]imino}methyl)amino]propyl}-4-(trifluoromethyl)benzamide] | – | – | 214 to 215 °C |
| CC(Cl)(Cl)C(NC(=O)c1ccc(Cl)cc1)NC(=N[N+](=O)[O-])Nc1cccnc1 (centres unmarked) [Example 137, 4-chloro-N-(2,2-dichloro-1-{[(nitroimino)(3-pyridinylamino)methyl]amino}propyl)benzamide] | – | – | 170 to 172 °C |
